Experimental data as given in paper PMC8788354 (Journal of Enzyme Inhibition and Medicinal Chemistry, 2022).

System: SKOV-3 (ovarian cancer cell line)
Assay: cells
Type: cell-based, human
Settings: Homo sapiens, SK-OV-3; SRB assay, 72 h exposure; read-out: Anticancer activity IC50 (nM) ± SD, SKOV-3

| Compound | IC50 |
| --- | --- |
| COc1cc2c(c(OC)c1OC)-c1ccc(=O)c(OCc3ccc(/C=C/c4cnc5ccccc5c4)cc3)cc1[C@@H](NC(C)=O)CC2 [Compound 7c] | 1.03 ± 0.09 nM |
| COc1cc2c(c(OC)c1OC)-c1ccc(=O)c(OCc3ccc(/C=C/c4ccccn4)cc3)cc1[C@@H](NC(C)=O)CC2 [Compound 7b] | 2.69 ± 0.02 nM |
| COc1cc2c(c(OC)c1OC)-c1ccc(OCc3ccc(/C=C/c4cnc5ccccc5c4)cc3)c(=O)cc1[C@@H](NC(C)=O)CC2 [Compound 8c] | 1.41 ± 0.02 nM |
| COc1cc2c(c(OC)c1OC)-c1ccc(OCc3ccc(/C=C/c4ccccn4)cc3)c(=O)cc1[C@@H](NC(C)=O)CC2 [Compound 8b] | 2.84 ± 0.03 nM |
| C/C=C/COc1cc2c(ccc1=O)-c1c(cc(OC)c(OC)c1OC)CC[C@@H]2NC(C)=O [Compound 3e] | 0.98 ± 0.02 nM |
| COc1cc2c(c(OC)c1OC)-c1ccc(OCc3ccc(I)cc3)c(=O)cc1[C@@H](NC(C)=O)CC2 [Compound 4b] | 2.83 ± 0.26 nM |
| C=CCCOc1cc2c(ccc1=O)-c1c(cc(OC)c(OC)c1OC)CC[C@@H]2NC(C)=O [Compound 3h] | 1.99 ± 0.07 nM |

System: SKBR-3 (human breast cancer cell line)
Assay: cells
Type: cell-based
Settings: Homo sapiens, SK-BR-3, 72 h, SRB assay, 72 h exposure; read-out: Anticancer activity IC50 (nM) ± SD, SKBR-3

| Compound | IC50 |
| --- | --- |
| COc1cc2c(c(OC)c1OC)-c1ccc(=O)c(OCc3ccc(/C=C/c4cnc5ccccc5c4)cc3)cc1[C@@H](NC(C)=O)CC2 [Compound 7c] | 1.51 ± 0.02 nM |
| COc1cc2c(c(OC)c1OC)-c1ccc(=O)c(OCc3ccc(/C=C/c4ccccn4)cc3)cc1[C@@H](NC(C)=O)CC2 [Compound 7b] | 2.09 ± 0.33 nM |
| COc1cc2c(c(OC)c1OC)-c1ccc(OCc3ccc(/C=C/c4cnc5ccccc5c4)cc3)c(=O)cc1[C@@H](NC(C)=O)CC2 [Compound 8c] | ~1 nM |
| COc1cc2c(c(OC)c1OC)-c1ccc(OCc3ccc(/C=C/c4ccccn4)cc3)c(=O)cc1[C@@H](NC(C)=O)CC2 [Compound 8b] | 2.77 ± 0.04 nM |
| C/C=C/COc1cc2c(ccc1=O)-c1c(cc(OC)c(OC)c1OC)CC[C@@H]2NC(C)=O [Compound 3e] | 0.94 ± 0.06 nM |
| COc1cc2c(c(OC)c1OC)-c1ccc(OCc3ccc(I)cc3)c(=O)cc1[C@@H](NC(C)=O)CC2 [Compound 4b] | 2.77 ± 0.19 nM |
| C=CCCOc1cc2c(ccc1=O)-c1c(cc(OC)c(OC)c1OC)CC[C@@H]2NC(C)=O [Compound 3h] | 1.04 ± 0.33 nM |

Same assay, conditions: SI = IC50 HDF/IC50 SKBR-3

| Compound | Selectivity index (SI), SKBR-3 |
| --- | --- |
| COc1cc2c(c(OC)c1OC)-c1ccc(OCc3ccc(/C=C/c4cnc5ccccc5c4)cc3)c(=O)cc1[C@@H](NC(C)=O)CC2 [Compound 8c] | ~2.6 |

Same assay, conditions: SRB assay, 72 h exposure; read-out: Anticancer activity IC50 (nM) ± SD, SKBR-3

| Compound | IC50 |
| --- | --- |
| COc1cc2c(c(OC)c1OC)-c1ccc(OCc3ccc(/C=C/c4cnc5ccccc5c4)cc3)c(=O)cc1[C@@H](NC(C)=O)CC2 [Compound 8c] | 1.05 ± 0.06 nM |

System: U-87MG cells (glioblastoma cell line)
Assay: cells
Type: cell-based, human
Settings: Homo sapiens, U-87 MG; SRB assay, 72 h exposure; read-out: Anticancer activity IC50 (nM) ± SD, U-87

| Compound | IC50 |
| --- | --- |
| COc1cc2c(c(OC)c1OC)-c1ccc(=O)c(OCc3ccc(/C=C/c4cnc5ccccc5c4)cc3)cc1[C@@H](NC(C)=O)CC2 [Compound 7c] | 1.73 ± 0.09 nM |
| COc1cc2c(c(OC)c1OC)-c1ccc(=O)c(OCc3ccc(/C=C/c4ccccn4)cc3)cc1[C@@H](NC(C)=O)CC2 [Compound 7b] | 2.43 ± 0.12 nM |
| COc1cc2c(c(OC)c1OC)-c1ccc(OCc3ccc(/C=C/c4cnc5ccccc5c4)cc3)c(=O)cc1[C@@H](NC(C)=O)CC2 [Compound 8c] | 1.65 ± 0.03 nM |
| COc1cc2c(c(OC)c1OC)-c1ccc(OCc3ccc(/C=C/c4ccccn4)cc3)c(=O)cc1[C@@H](NC(C)=O)CC2 [Compound 8b] | 2.49 ± 0.05 nM |
| C/C=C/COc1cc2c(ccc1=O)-c1c(cc(OC)c(OC)c1OC)CC[C@@H]2NC(C)=O [Compound 3e] | 0.95 ± 0.01 nM |
| COc1cc2c(c(OC)c1OC)-c1ccc(OCc3ccc(I)cc3)c(=O)cc1[C@@H](NC(C)=O)CC2 [Compound 4b] | 2.85 ± 0.03 nM |
| C=CCCOc1cc2c(ccc1=O)-c1c(cc(OC)c(OC)c1OC)CC[C@@H]2NC(C)=O [Compound 3h] | 1.06 ± 0.03 nM |

System: Human Dermal Fibroblasts cell line (HDF)
Assay: not given
Settings: read-out: Toxicity IC50 (nM) ± SD, HDF; healthy cell line HDF, SRB assay, 72 h exposure

| Compound | IC50 |
| --- | --- |
| COc1cc2c(c(OC)c1OC)-c1ccc(=O)c(OCc3ccc(/C=C/c4ccccn4)cc3)cc1[C@@H](NC(C)=O)CC2 [Compound 7b] | 5.11 ± 0.85 nM |
| COc1cc2c(c(OC)c1OC)-c1ccc(OCc3ccc(/C=C/c4ccccn4)cc3)c(=O)cc1[C@@H](NC(C)=O)CC2 [Compound 8b] | 4.83 ± 0.27 nM |

System: SKBR-3, SKOV-3, PC-3, U-87 cells
Assay: SRB cytotoxicity assay, values summarised over cancer cell lines
Type: cell-based, human
Settings: Homo sapiens, SKBR-3, SKOV-3, PC-3, U-87; read-out: Anticancer IC50 over the studied cancer cell lines

| Compound | IC50 |
| --- | --- |
| COc1cc2c(c(OC)c1OC)-c1ccc(=O)c(OCc3ccc(/C=C/c4cnc5ccccc5c4)cc3)cc1[C@@H](NC(C)=O)CC2 [Compound 7c] | 1.03 to 1.73 nM |
| COc1cc2c(c(OC)c1OC)-c1ccc(=O)c(OCc3ccc(/C=C/c4ccccn4)cc3)cc1[C@@H](NC(C)=O)CC2 [Compound 7b] | 2 to 2.5 nM |
| COc1cc2c(c(OC)c1OC)-c1ccc(OCc3ccc(/C=C/c4cnc5ccccc5c4)cc3)c(=O)cc1[C@@H](NC(C)=O)CC2 [Compound 8c] | 1.03 to 1.73 nM |
| COc1cc2c(c(OC)c1OC)-c1ccc(OCc3ccc(/C=C/c4ccccn4)cc3)c(=O)cc1[C@@H](NC(C)=O)CC2 [Compound 8b] | 2 to 2.5 nM |
| C/C=C/COc1cc2c(ccc1=O)-c1c(cc(OC)c(OC)c1OC)CC[C@@H]2NC(C)=O [Compound 3e] | 0.94 to 0.98 nM |

Same assay, conditions: SI = IC50 HDF/IC50 cancer cell line

| Compound | Selectivity indexes (SIs), all studied cancer cell lines |
| --- | --- |
| C/C=C/COc1cc2c(ccc1=O)-c1c(cc(OC)c(OC)c1OC)CC[C@@H]2NC(C)=O [Compound 3e] | ~2.2 |

Same assay, conditions: SKBR-3, SKOV-3, PC-3, U-87; read-out: Anticancer IC50 over the studied cancer cell lines

| Compound | IC50 |
| --- | --- |
| C/C=C/COc1cc2c(ccc1=O)-c1c(cc(OC)c(OC)c1OC)CC[C@@H]2NC(C)=O [Compound 3e] | ~0.9 nM |

System: not listed separately
Assay: in vitro
Settings: human, Toxicity IC50 (nM) ± SD, HDF, healthy cell line HDF, SRB assay, 72 h exposure

| Compound | IC50 |
| --- | --- |
| COc1cc2c(c(OC)c1OC)-c1ccc(=O)c(OCc3ccc(/C=C/c4cnc5ccccc5c4)cc3)cc1[C@@H](NC(C)=O)CC2 [Compound 7c] | 2.16 ± 0.6 nM |
| COc1cc2c(c(OC)c1OC)-c1ccc(=O)c(OCc3ccc(/C=C/c4ccccn4)cc3)cc1[C@@H](NC(C)=O)CC2 [Compound 7b] | 4 to 5 nM |
| COc1cc2c(c(OC)c1OC)-c1ccc(OCc3ccc(/C=C/c4cnc5ccccc5c4)cc3)c(=O)cc1[C@@H](NC(C)=O)CC2 [Compound 8c] | 2.77 ± 0.25 nM |
| COc1cc2c(c(OC)c1OC)-c1ccc(OCc3ccc(/C=C/c4ccccn4)cc3)c(=O)cc1[C@@H](NC(C)=O)CC2 [Compound 8b] | 4 to 5 nM |
| C/C=C/COc1cc2c(ccc1=O)-c1c(cc(OC)c(OC)c1OC)CC[C@@H]2NC(C)=O [Compound 3e] | 2.13 ± 0.06 nM |
| COc1cc2c(c(OC)c1OC)-c1ccc(OCc3ccc(I)cc3)c(=O)cc1[C@@H](NC(C)=O)CC2 [Compound 4b] | 4.12 ± 0.01 nM |
| C=CCCOc1cc2c(ccc1=O)-c1c(cc(OC)c(OC)c1OC)CC[C@@H]2NC(C)=O [Compound 3h] | 1.84 ± 0.11 nM |

System: PC-3 (human prostate cancer cell line)
Assay: cells
Type: cell-based
Settings: Homo sapiens; SRB assay, 72 h exposure; read-out: Anticancer activity IC50 (nM) ± SD, PC-3

| Compound | IC50 |
| --- | --- |
| COc1cc2c(c(OC)c1OC)-c1ccc(=O)c(OCc3ccc(/C=C/c4cnc5ccccc5c4)cc3)cc1[C@@H](NC(C)=O)CC2 [Compound 7c] | 1.52 ± 0.01 nM |
| COc1cc2c(c(OC)c1OC)-c1ccc(=O)c(OCc3ccc(/C=C/c4ccccn4)cc3)cc1[C@@H](NC(C)=O)CC2 [Compound 7b] | 2.45 ± 0.52 nM |
| COc1cc2c(c(OC)c1OC)-c1ccc(OCc3ccc(/C=C/c4cnc5ccccc5c4)cc3)c(=O)cc1[C@@H](NC(C)=O)CC2 [Compound 8c] | 1.47 ± 0.05 nM |
| COc1cc2c(c(OC)c1OC)-c1ccc(OCc3ccc(/C=C/c4ccccn4)cc3)c(=O)cc1[C@@H](NC(C)=O)CC2 [Compound 8b] | 2.63 ± 0.77 nM |
| C/C=C/COc1cc2c(ccc1=O)-c1c(cc(OC)c(OC)c1OC)CC[C@@H]2NC(C)=O [Compound 3e] | 0.96 ± 0.01 nM |
| COc1cc2c(c(OC)c1OC)-c1ccc(OCc3ccc(I)cc3)c(=O)cc1[C@@H](NC(C)=O)CC2 [Compound 4b] | 2.41 ± 0.66 nM |
| C=CCCOc1cc2c(ccc1=O)-c1c(cc(OC)c(OC)c1OC)CC[C@@H]2NC(C)=O [Compound 3h] | 1.53 ± 0.21 nM |
